Data taken from patent publication US20130101615A1, “METHODS FOR PREVENTING OR TREATING A DISEASE OR CONDITION ASSOCIATED WITH MYCOBACTERIUM AVIUM SUBSPECIES PARATUBERCULOSIS” (priority 2005, published 2013).
Several values for one entry are separate records, joined by “and”; a condition that tells them apart may be missing. Equal entries are not always repeated. Entries after “also recorded” stand apart in the source; their conditions may differ. Where two headings read alike, the source gives them in different places.

Experiments:
[1] = tested on: MAP Dominic (ATCC 43545), isolated from human with Crohn's disease; format: cell-based, Mycobacterium avium subspecies paratuberculosis; conditions: for % ΔcGI: vs 3.2% DMSO control; for %−ΔcGI (percent decrease in cumulative GI): MAP Dominic; for %-ΔcGI: Example 5
MAP ATCC 19698 (bovine) = format: cell-based, Mycobacterium avium subspecies paratuberculosis; conditions: for % ΔcGI: Bovine MAP 19698, vs 3.2% DMSO control; for %-ΔcGI: Example 5
[2] = tested on: MAP UCF 4, isolated from human with Crohn's disease; test: Radiometric BACTEC growth inhibition, MAP UCF4; format: cell-based, Mycobacterium avium subspecies paratuberculosis; conditions: for % ΔcGI: Human MAP UCF4, vs 3.2% DMSO control
[3] = tested on: MAP 303 (ruminant with Johne's disease); test: Radiometric BACTEC growth inhibition, MAP 303; format: cell-based, Mycobacterium avium subspecies paratuberculosis; conditions: Bovine MAP 303, vs 3.2% DMSO control
M. avium ATCC 25291 = format: cell-based, M. avium subspecies avium; conditions: for % ΔcGI: M. avium 25291, vs 3.2% DMSO control; for %-ΔcGI: Example 5
M. avium 101 = format: cell-based, M. avium subspecies avium; conditions: for % ΔcGI: vs 3.2% DMSO control; for %-ΔcGI: Example 5
MAP = test: Growth inhibition of MAP (strain not stated or MAP strains in general); conditions: for effect on growth of MAP, in words: MAP strains in general; for %−ΔcGI (percent decrease in cumulative GI): Example 3, strain not stated
[4] = 1 μg/ml, Human MAP Dominic Expt. 1
[5] = 1 μg/ml, Human MAP Dominic Expt. 2
[6] = 4 μg/ml, Human MAP Dominic Expt. 1
[7] = 4 μg/ml, Human MAP Dominic Expt. 2
[8] = 16 μg/ml, Human MAP Dominic Expt. 1
[9] = 16 μg/ml, Human MAP Dominic Expt. 2
[10] = 64 μg/ml, Human MAP Dominic Expt. 1
[11] = 64 μg/ml, Human MAP Dominic Expt. 2

## CC[C@@]1([C@@H]2O[C@@H]([C@H]3O[C@@](O)(CO)[C@H](C)C[C@@H]3C)C[C@@H]2C)CC[C@H]([C@]2(C)CC[C@]3(C[C@H](O)[C@@H](C)[C@@H]([C@@H](C)[C@@H](OC)[C@H](C)C(=O)O)O3)O2)O1 [Monensin, monensin]
[1]; [4]
  % ΔcGI: −52%
[1]; [5]
  % ΔcGI: −46%
[1]; [6]
  % ΔcGI: −77%
[1]; [7]
  % ΔcGI: −71%
[1]; [8]
  % ΔcGI: −93%
[1]; [9]
  % ΔcGI: −87%
[1]; [10]
  % ΔcGI: −94%
[1]; [11]
  % ΔcGI: −92%
MAP ATCC 19698 (bovine); 1 μg/ml
  % ΔcGI: −14%
MAP ATCC 19698 (bovine); 4 μg/ml
  % ΔcGI: −45%
MAP ATCC 19698 (bovine); 16 μg/ml
  % ΔcGI: −62%
MAP ATCC 19698 (bovine); 64 μg/ml
  % ΔcGI: −65%
[2]; 1 μg/ml
  % ΔcGI: −73%
[2]; 4 μg/ml
  % ΔcGI: −93%
[2]; 16 μg/ml
  % ΔcGI: −96%
[2]; 64 μg/ml
  % ΔcGI: −97%
[3]; 1 μg/ml
  % ΔcGI: −21%
[3]; 4 μg/ml
  % ΔcGI: −73%
[3]; 16 μg/ml
  % ΔcGI: −94%
[3]; 64 μg/ml
  % ΔcGI: −97%
M. avium ATCC 25291; 1 μg/ml
  % ΔcGI: −25%
M. avium ATCC 25291; 4 μg/ml
  % ΔcGI: −54%
M. avium ATCC 25291; 16 μg/ml
  % ΔcGI: −69%
M. avium ATCC 25291; 64 μg/ml
  % ΔcGI: −87%
M. avium 101
  effect on growth, in words: no inhibition
M. avium 101; 1 μg/ml
  % ΔcGI: 7%
M. avium 101; 4 μg/ml
  % ΔcGI: 3%
M. avium 101; 16 μg/ml
  % ΔcGI: 4%
M. avium 101; 64 μg/ml
  % ΔcGI: 8%
MAP
  effect on growth of MAP, in words: dose-dependent inhibition against all MAP strains

## Sc1ncnc2nc[nH]c12 [6-MP, 6-mercaptopurine]
[1]; 4 μg/ml, Example 3
  %−ΔcGI (percent decrease in cumulative GI): 41%
MAP ATCC 19698 (bovine); 4 μg/ml, MAP 19698, Example 3
  %−ΔcGI (percent decrease in cumulative GI): ~80% and 84%
M. avium ATCC 25291; M. avium ATCC 25291
  effect on growth, in words: less susceptibility to 6-MP than to methotrexate
M. avium 101
  effect on growth, in words: less susceptibility to 6-MP than to methotrexate
MAP; 1 μg/ml
  %−ΔcGI (percent decrease in cumulative GI): ≥ 43%
MAP; 4 μg/ml
  %−ΔcGI (percent decrease in cumulative GI): ≥ 84%
MAP
  effect on growth of MAP, in words: inhibit the growth kinetics of MAP

## C[C@@H]1C[C@@H]([C@H](O)CC2CC(=O)NC(=O)C2)C(=O)[C@@H](C)C1 [Cycloheximide, cycloheximide]
[1]; [4]
  % ΔcGI: 15%
[1]; [5]
  % ΔcGI: 9%
[1]; [6]
  % ΔcGI: −4%
[1]; [7]
  % ΔcGI: 0%
[1]; [8]
  % ΔcGI: −8%
[1]; [9]
  % ΔcGI: −4%
[1]; [10]
  % ΔcGI: −1%
[1]; [11]
  % ΔcGI: −7%
MAP ATCC 19698 (bovine); 1 μg/ml
  % ΔcGI: −2%
MAP ATCC 19698 (bovine); 4 μg/ml
  % ΔcGI: −7%
MAP ATCC 19698 (bovine); 16 μg/ml
  % ΔcGI: −12%
MAP ATCC 19698 (bovine); 64 μg/ml
  % ΔcGI: −9%
[2]; 1 μg/ml
  % ΔcGI: 1%
[2]; 4 μg/ml
  % ΔcGI: −7%
[2]; 16 μg/ml
  % ΔcGI: −4%
[2]; 64 μg/ml
  % ΔcGI: −12%
[3]; 1 μg/ml
  % ΔcGI: 3%
[3]; 4 μg/ml
  % ΔcGI: 4%
[3]; 16 μg/ml
  % ΔcGI: −5%
[3]; 64 μg/ml
  % ΔcGI: −4%
M. avium ATCC 25291; 1 μg/ml
  % ΔcGI: 0%
M. avium ATCC 25291; 4 μg/ml
  % ΔcGI: −8%
M. avium ATCC 25291; 16 μg/ml
  % ΔcGI: −7%
M. avium ATCC 25291; 64 μg/ml
  % ΔcGI: −57%
M. avium ATCC 25291; 64 μg/ml, M. avium ATCC 25291
  %−ΔcGI (percent decrease in cumulative GI): 57%
M. avium 101
  effect on growth, in words: no affect
M. avium 101; 1 μg/ml
  % ΔcGI: 6%
M. avium 101; 4 μg/ml
  % ΔcGI: 7%
M. avium 101; 16 μg/ml
  % ΔcGI: 1%
M. avium 101; 64 μg/ml
  % ΔcGI: 5%
MAP
  effect on growth of MAP, in words: no dose-dependent inhibition on any MAP strain

## O=C1CCCC(=O)N1O [HPD]
[1]; 1 μg/ml, MAP Dominic Expt A
  %-ΔcGI: −5%
[1]; 1 μg/ml, MAP Dominic Expt B
  %-ΔcGI: 16%
[1]; 4 μg/ml, MAP Dominic Expt A
  %-ΔcGI: −7%
[1]; 4 μg/ml, MAP Dominic Expt B
  %-ΔcGI: 6%
[1]; 16 μg/ml, MAP Dominic Expt A
  %-ΔcGI: −18%
[1]; 16 μg/ml, MAP Dominic Expt B
  %-ΔcGI: 12%
[1]; 64 μg/ml
  %−ΔcGI (percent decrease in cumulative GI): 46%
[1]; 64 μg/ml, MAP Dominic Expt A
  %-ΔcGI: −46%
[1]; 64 μg/ml, MAP Dominic Expt B
  %-ΔcGI: −19%
MAP ATCC 19698 (bovine); 1 μg/ml, MAP ATCC 19698
  %-ΔcGI: 22%
MAP ATCC 19698 (bovine); 4 μg/ml, MAP ATCC 19698
  %-ΔcGI: 7%
MAP ATCC 19698 (bovine); 16 μg/ml, MAP ATCC 19698
  %-ΔcGI: −3%
MAP ATCC 19698 (bovine); 64 μg/ml, MAP ATCC 19698
  %−ΔcGI (percent decrease in cumulative GI): −44%
  %-ΔcGI: −44%
M. avium ATCC 25291; 1 μg/ml, M. avium ATCC 25291
  %-ΔcGI: −4%
M. avium ATCC 25291; 4 μg/ml, M. avium ATCC 25291
  %-ΔcGI: 47%
M. avium ATCC 25291; 16 μg/ml, M. avium ATCC 25291
  %-ΔcGI: 22%
M. avium ATCC 25291; 64 μg/ml, M. avium ATCC 25291
  %-ΔcGI: 21%
M. avium ATCC 25291; M. avium ATCC 25291
  effect on growth, in words: no dose-dependent inhibition
M. avium 101
  effect on growth, in words: no dose-dependent inhibition
M. avium 101; 1 μg/ml
  %-ΔcGI: −12%
M. avium 101; 4 μg/ml
  %-ΔcGI: −52%
M. avium 101; 16 μg/ml
  %-ΔcGI: −21%
M. avium 101; 64 μg/ml
  %-ΔcGI: −36%
MAP
  effect on growth of MAP, in words: the most potent inhibitory agent evaluated; also recorded: inhibits the growth of MAP

## C=CC[C@@H]1/C=C(\C)C[C@H](C)C[C@H](OC)[C@H]2O[C@@](O)(C(=O)C(=O)N3CCCC[C@H]3C(=O)O[C@H](/C(C)=C/[C@@H]3CC[C@@H](O)[C@H](OC)C3)[C@H](C)[C@@H](O)CC1=O)[C@H](C)C[C@@H]2OC [Tacrolimus, tacrolimus (FK506)]
[1]; [4]
  % ΔcGI: 28%
[1]; [5]
  % ΔcGI: 5%
[1]; [6]
  % ΔcGI: 9%
[1]; [7]
  % ΔcGI: 9%
[1]; [8]
  % ΔcGI: 21%
[1]; [9]
  % ΔcGI: −10%
[1]; [10]
  % ΔcGI: 0%
[1]; [11]
  % ΔcGI: −21%
MAP ATCC 19698 (bovine); 1 μg/ml
  % ΔcGI: 8%
MAP ATCC 19698 (bovine); 4 μg/ml
  % ΔcGI: −3%
MAP ATCC 19698 (bovine); 16 μg/ml
  % ΔcGI: −5%
MAP ATCC 19698 (bovine); 64 μg/ml
  % ΔcGI: −26%
MAP ATCC 19698 (bovine); 64 μg/ml, MAP ATCC 19698
  %−ΔcGI (percent decrease in cumulative GI): 26%
[2]; 1 μg/ml
  % ΔcGI: 6%
[2]; 4 μg/ml
  % ΔcGI: −19%
[2]; 16 μg/ml
  % ΔcGI: −18%
[2]; 64 μg/ml
  % ΔcGI: −43%
[2]; 64 μg/ml, MAP UCF 4
  %−ΔcGI (percent decrease in cumulative GI): 43%
[3]; 1 μg/ml
  % ΔcGI: 5%
[3]; 4 μg/ml
  % ΔcGI: 3%
[3]; 16 μg/ml
  % ΔcGI: −5%
[3]; 64 μg/ml
  % ΔcGI: −27%
M. avium ATCC 25291; 1 μg/ml
  % ΔcGI: −23%
M. avium ATCC 25291; 4 μg/ml
  % ΔcGI: −3%
M. avium ATCC 25291; 16 μg/ml
  % ΔcGI: 11%
M. avium ATCC 25291; 64 μg/ml
  % ΔcGI: 53%
M. avium ATCC 25291; M. avium ATCC 25291
  effect on growth, in words: no inhibition; also recorded: enhanced growth
M. avium 101
  effect on growth, in words: the most inhibition on M. avium 101 of all six strains studied
M. avium 101; 1 μg/ml
  % ΔcGI: −34%
M. avium 101; 4 μg/ml
  % ΔcGI: −43%
M. avium 101; 16 μg/ml
  % ΔcGI: −40%
M. avium 101; 64 μg/ml
  % ΔcGI: −52%
MAP
  effect on growth of MAP, in words: the least inhibition of the three “immunosuppressants” studied
